Assay results reported in US9340559B2, “Proteasome inhibitor delanzomib for use in the treatment of lupus” (Cephalon, Inc., priority 2011, dated 2016).

Tests used:
MRL/lpr mice [1] = experiment: Lymphomegaly (enlarged lymph nodes), MRL/lpr mice; format: in vivo, mouse; settings: for lymphomegaly decrease compared to vehicle: iv
Experimental: FIG. 4 depicts lymphomegaly for MRL/lpr mice across treatment groups for the study duration. MRL/lpr mice were treated as outlined in the legend. Lymphomegaly or presence of enlarged lymph nodes were observed weekly and noted.
Mice are tracked on an individual basis.
Vehicle alone is provided orally twice weekly (p.o.). Both proteasome inhibitors are suspended in the vehicle solution. […] In addition, urine proteinuria is determined for all animals.
Vehicle was 3% DMSO/10% Solutol/87% PBS.

MRL/lpr mice [2] = experiment: Antibody secreting B-cell Elispot (anti-Smith Ag, anti-dsDNA, anti-chromatin ASC), spleens of MRL/lpr mice; format: in vivo, mouse
Experimental: FIG. 9 depicts frequency of anti-Smith antigen and anti-dsDNA antibody secreting cells in the spleens of MRL/lpr mice. MRL/lpr treated mice spleens were processed for splenocytes for ex vivo Elispot assays. Elispot wells were coated with 10 μg/mL of smith antigen, dsDNA or ovalbumin protein. Fresh, whole splenocytes were added to each well at 500,000 cells per well in cell culture medium. Cells were incubated overnight at 37° C. Developed wells provided spots that were counted as frequency of ASCs per million splenocytes.
FIG. 10 depicts the frequency of anti-chromatin antibody secreting cells in the spleens of MRL/lpr mice. MRL/lpr treated mice spleens were processed for splenocytes for ex vivo Elispot assays. Elispot wells were coated with 10 μg/mL of boiled chicken chromatin or ovalbumin protein. Fresh, whole splenocytes were added to each well at […] cells per well in cell culture medium. Cells were incubated overnight at 37° C. Developed wells provided spots that were counted as frequency of ASCs per million splenocytes.
B-cell Elispot components are ordered from MabTech (Nacka Strand, Sweden) and nitrocellulose IP filter plates are ordered from Millipore (Billerica, Mass.). Elispot wells are coated with either purified bovine thymus dsDNA (Sigma), purified bovine Smith antigen (GenWay) or boiled filtered purified chicken chromatin from lysed chicken red blood cells (Rockland, Gilbertsville, Pa.) at 10 μg/mL. Spleens are processed using glass homogenization, filtered through a 60 μm sterile cell strainer and red blood cells (RBCs) lysed using BioLegend (San Diego, Calif.) lysis buffer. Processed splenocytes are added to each well in culture medium. To avoid skewing of true ex vivo frequencies of antibody secreting cell types (ASCs), cells are not stimulated with a polyclonal mitogen like LPS, but rather incubated in media alone to allow monitoring of genuine ex vivo antibody release. Anti-mouse pan-IgG is used as a positive control for total IgG producing ASCs and is used to normalize results. Frequencies for each antigen are identified in an initial test phase for each model. For chromatin and total IgG only, 30,000 splenocytes are added to each well; for Smith antigen and dsDNA, 500,000 cells are added to each well. Different numbers of splenocytes are added for different antigens due to saturation limits of spot frequencies per well. These limits are previously established. B-cell Elispots are incubated overnight at 37° C. To develop each assay, secondary antibody is added to each well, incubated, washed and alkaline phosphatase strepavidin is used as the conjugate; substrate used is BCIP-NBT. Plates are developed until spots are visible. All Elispot analyses are performed using an Immunospot C.T.L. scanner and Biospot software (Cellular Technology Ltd., Shaker Heights, Ohio). Results are shown as values from which media and cells only wells are subtracted. Some values are negative due to high background.

MRL/lpr mice [3] = experiment: Urinalysis: urine leukocytes (leukouria), Uristix, MRL/lpr mice; format: in vivo, mouse
Experimental: Urine samples are acid precipitated for total protein recovery and analysis. Samples for which enough urine remained are used for Uristix® leukouria analysis. Briefly, a standard protein solution is prepared from normal mouse sera and is used as a standard for mouse urinary protein assay by turbidity. Standard preparation is as follows: 0, 5, 10, 15, 20, 30, 40, and 50 μL of a 4 mg/mL mouse sera standard protein solution as provided in the kit are added in duplicate into two columns. PBS is added to individual wells to adjust the final volume to 50 μL. For urine sample preparation, urine samples are centrifuged at 9880×g for 3 minutes using a tabletop micro-centrifuge. Urine supernatant (1-50 μL) is added in duplicate. PBS is added to adjust the volume to 50 μL total. For the turbidity assay: 25 μL of 0.1 N HCl is added into blank columns and 250 μL of 3% sulfosalicyclic acid into the test columns. The microplate is incubated for 10 minutes at RT and plates are read using an ELISA reader with single beam at 450 nm. For the Uristix® strip assay, strips are laid out and labeled. Twenty microliters of urine are placed onto each test strip square and incubated for at least 30 seconds before the result is recorded. For all total urine analysis plate-based assays, values below the limit of detection set by the lowest point along the standard or set by the manufacturer are considered out of range and are not estimated, but assumed the lowest point along the standard curve for that particular assay.

IκBα = IκBα accumulation ELISA in kidney 3 hours post dose, MRL/lpr mice; format: in vivo, mouse
Experimental: Samples are homogenized frozen using a PT 10-35 Polytron homogenizer (VWR, no. 97036-082). […] Spleen proteasome activity is analyzed using 20S fluorogenic assay (Cayman Chemical Company, Cat #10008041, Lot #0414698-1) and modulation of proteasome activity in the kidney is analyzed using the IκBα accumulation ELISA assay (Cell Signaling, Cat #7355, Lot #17).

NZM mice [4] = experiment: Splenomegaly (spleen mass), NZM mice (Example 2); format: in vivo, mouse
20S proteasome [5] = experiment: 20S proteasome activity in spleen (ex vivo fluorogenic assay), MRL/lpr mice; settings: for PD EOS 20S proteasome, percent change vs vehicle: spleen
NZM mice [6] = experiment: Antinuclear antibody ELISA (anti-Smith, anti-dsDNA), serum of NZM mice (Example 3)
20S proteasome [7] = experiment: 20S proteasome activity in spleen (ex vivo fluorogenic assay), NZM mice (Example 2)

## CC(C)C[C@H](NC(=O)[C@@H](NC(=O)c1cccc(-c2ccccc2)n1)[C@@H](C)O)B(O)O [COMPOUND A, [(1R)-1-[[(2S,3R)-3-hydroxy-2-[6-phenyl-pyridine-2-carbonyl)amino]-1-oxobutyl]amino]-3-methylbutylboronic acid]
MRL/lpr mice [1]; G1: 3 mg/kg iv, 1× wk
  AUC lymphomegaly, percent of non enlarged lymph nodes relative to vehicle: 71%
MRL/lpr mice [1]; G2: 3 mg/kg iv, 2× wk
  AUC lymphomegaly, percent of non enlarged lymph nodes relative to vehicle: 34%
MRL/lpr mice [1]; G3: 10 mg/kg po, 2× wk
  AUC lymphomegaly, percent of non enlarged lymph nodes relative to vehicle: 9%
MRL/lpr mice [1]; first value (G1: 3 mg/kg 1× wk)
  lymphomegaly decrease compared to vehicle: 71%
MRL/lpr mice [1]; second value (G2: 3 mg/kg 2× wk)
  lymphomegaly decrease compared to vehicle: 34%
MRL/lpr mice [2]; G1: 3 mg/kg iv, 1× wk
  ASC EOS Smith Ag, percent change vs vehicle: −97%
  ASC EOS chromatin, percent change vs vehicle: −89%
  ASC EOS dsDNA, percent change vs vehicle: −80%
MRL/lpr mice [2]; G2: 3 mg/kg iv, 2× wk
  ASC EOS Smith Ag, percent change vs vehicle: −110%
  ASC EOS chromatin, percent change vs vehicle: −98%
  ASC EOS dsDNA, percent change vs vehicle: −84%
MRL/lpr mice [2]; G3: 10 mg/kg po, 2× wk
  ASC EOS Smith Ag, percent change vs vehicle: −86%
  ASC EOS chromatin, percent change vs vehicle: −79%
  ASC EOS dsDNA, percent change vs vehicle: −82%
MRL/lpr mice [2]; Group 1
  anti-Smith Ag IgG ASC frequency decrease vs vehicle: 97%
  anti-dsDNA IgG ASC frequency decrease vs vehicle: 80%
MRL/lpr mice [2]; Group 2
  anti-Smith Ag IgG ASC frequency decrease vs vehicle: 100%
  anti-dsDNA IgG ASC frequency decrease vs vehicle: 84%
MRL/lpr mice [2]; Group 3
  anti-Smith Ag IgG ASC frequency decrease vs vehicle: 86%
  anti-dsDNA IgG ASC frequency decrease vs vehicle: 82%
MRL/lpr mice [3]; G1: 3 mg/kg iv, 1× wk
  Urine AUC leukocytes, percent change vs vehicle: −96%
MRL/lpr mice [3]; G2: 3 mg/kg iv, 2× wk
  Urine AUC leukocytes, percent change vs vehicle: −94%
MRL/lpr mice [3]; G3: 10 mg/kg po, 2× wk
  Urine AUC leukocytes, percent change vs vehicle: −94%
IκBα; G1: 3 mg/kg iv, 1× wk
  PD EOS IκBα accumulation, percent change vs vehicle: +537%
IκBα; G2: 3 mg/kg iv, 2× wk
  PD EOS IκBα accumulation, percent change vs vehicle: +227%
IκBα; G3: 10 mg/kg po, 2× wk
  PD EOS IκBα accumulation, percent change vs vehicle: +166%
NZM mice [4]; G1 3 mg/kg ip, 1× wk
  Spleen mass EOS, percent change vs vehicle: −37%
NZM mice [4]; G1: 3 mg/kg ip once per week
  splenomegaly decrease vs vehicle at EOS: 37%
NZM mice [4]; G2 3 mg/kg ip, 2× wk
  Spleen mass EOS, percent change vs vehicle: −34%
NZM mice [4]; G2: 3 mg/kg ip twice weekly
  splenomegaly decrease vs vehicle at EOS: 34%
NZM mice [4]; p<0.05
  spleen mass compared to once-a-week bortezomib: reduced spleen mass significantly
20S proteasome [5]; Group 1
  spleen 20S proteasome function decrease vs vehicle: 40%
20S proteasome [5]; Group 2
  spleen 20S proteasome function decrease vs vehicle: 45%
20S proteasome [5]; Group 3
  spleen 20S proteasome function decrease vs vehicle: 41%
20S proteasome [5]; G1: 3 mg/kg iv, 1× wk
  PD EOS 20S proteasome, percent change vs vehicle: −40%
20S proteasome [5]; G2: 3 mg/kg iv, 2× wk
  PD EOS 20S proteasome, percent change vs vehicle: −45%
20S proteasome [5]; G3: 10 mg/kg po, 2× wk
  PD EOS 20S proteasome, percent change vs vehicle: −41%
NZM mice [6]; Group 1 (regimen: Table 42)
  serum anti-dsDNA ANA decrease vs vehicle: 79.6%
  serum anti-smith ANA decrease vs vehicle: 93.8%
NZM mice [6]; Group 2 (regimen: Table 42)
  serum anti-dsDNA ANA decrease vs vehicle: 69.2%
  serum anti-smith ANA decrease vs vehicle: 85.0%
NZM mice [6]; Group 4 (regimen: Table 42)
  serum anti-dsDNA ANA decrease vs vehicle: 84.1%
  serum anti-smith ANA decrease vs vehicle: 94.5%
NZM mice [6]; Group 5 (regimen: Table 42)
  serum anti-dsDNA ANA decrease vs vehicle: 81.0%
  serum anti-smith ANA decrease vs vehicle: 92.4%
20S proteasome [7]; COMPOUND A groups
  spleen 20S proteasome inhibition relative to vehicle: ~40%
20S proteasome [7]; G1 3 mg/kg ip, 1× wk
  PD 20S proteasome activity, percent change vs vehicle: −42%
20S proteasome [7]; G2 3 mg/kg ip, 2× wk
  PD 20S proteasome activity, percent change vs vehicle: −41%

## CC(C)C[C@H](NC(=O)[C@H](Cc1ccccc1)NC(=O)c1cnccn1)B(O)O [bortezomib, reference compound]
MRL/lpr mice [1]; G4: 0.5 mg/kg iv, 1× wk
  AUC lymphomegaly, percent of non enlarged lymph nodes relative to vehicle: 13%
MRL/lpr mice [1]; G5: 0.3 mg/kg iv, 2× wk
  AUC lymphomegaly, percent of non enlarged lymph nodes relative to vehicle: 21%
MRL/lpr mice [1]; bortezomib treatment groups
  effect on lymphomegaly: did not significantly reduce lymphomegaly
MRL/lpr mice [2]; G4: 0.5 mg/kg iv, 1× wk
  ASC EOS Smith Ag, percent change vs vehicle: −74%
  ASC EOS chromatin, percent change vs vehicle: −64%
  ASC EOS dsDNA, percent change vs vehicle: −58%
MRL/lpr mice [2]; G5: 0.3 mg/kg iv, 2× wk
  ASC EOS Smith Ag, percent change vs vehicle: +73%
  ASC EOS chromatin, percent change vs vehicle: +5%
  ASC EOS dsDNA, percent change vs vehicle: +219%
MRL/lpr mice [3]; G4: 0.5 mg/kg iv, 1× wk
  Urine AUC leukocytes, percent change vs vehicle: −78%
MRL/lpr mice [3]; G5: 0.3 mg/kg iv, 2× wk
  Urine AUC leukocytes, percent change vs vehicle: −70%
IκBα; G4: 0.5 mg/kg iv, 1× wk
  PD EOS IκBα accumulation, percent change vs vehicle: +340%
IκBα; G5: 0.3 mg/kg iv, 2× wk
  PD EOS IκBα accumulation, percent change vs vehicle: +99%
NZM mice [4]; G3 0.3 mg/kg ip, 1× wk
  Spleen mass EOS, percent change vs vehicle: +14%
NZM mice [4]; G4 0.3 mg/kg ip, 2× wk
  Spleen mass EOS, percent change vs vehicle: −19%
20S proteasome [5]; Group 4
  spleen 20S proteasome function decrease vs vehicle: 40%
20S proteasome [5]; Group 5
  spleen 20S proteasome function decrease vs vehicle: 41%
20S proteasome [5]; G4: 0.5 mg/kg iv, 1× wk
  PD EOS 20S proteasome, percent change vs vehicle: −40%
20S proteasome [5]; G5: 0.3 mg/kg iv, 2× wk
  PD EOS 20S proteasome, percent change vs vehicle: −41%
NZM mice [6]; Group 7, ip
  serum anti-dsDNA ANA decrease vs vehicle: 25.8%
  serum anti-smith ANA decrease vs vehicle: 66.7%
NZM mice [6]; Group 8, sc
  serum anti-dsDNA ANA decrease vs vehicle: 55.4%
  serum anti-smith ANA decrease vs vehicle: 85.7%
20S proteasome [7]; G3 0.3 mg/kg ip, 1× wk
  PD 20S proteasome activity, percent change vs vehicle: −14%
20S proteasome [7]; G4 0.3 mg/kg ip, 2× wk
  PD 20S proteasome activity, percent change vs vehicle: −27%

## C[C@@H]1C[C@H]2[C@@H]3CCC4=CC(=O)C=C[C@]4(C)[C@@]3(F)[C@@H](O)C[C@]2(C)[C@@]1(O)C(=O)CO [dexamethasone, Dexamethasone, reference compound]
MRL/lpr mice [1]; G6: 1.5 mg/kg ip, 3× wk
  AUC lymphomegaly, percent of non enlarged lymph nodes relative to vehicle: 22%
MRL/lpr mice [2]; G6: 1.5 mg/kg ip, 3× wk
  ASC EOS Smith Ag, percent change vs vehicle: +40%
  ASC EOS chromatin, percent change vs vehicle: −22%
  ASC EOS dsDNA, percent change vs vehicle: +129%
MRL/lpr mice [3]; G6: 1.5 mg/kg ip, 3× wk
  Urine AUC leukocytes, percent change vs vehicle: −100%
NZM mice [4]; G5 1.5 mg/kg ip, 3× wk
  Spleen mass EOS, percent change vs vehicle: −59%
